Assay results from patent US8084481B2, “Substituted arylimidazolone and triazolone as inhibitors of vasopressin receptors” (Bayer Pharma Aktiengesellschaft, priority 2006, dated 2011).

What was measured:
[1] = target: T1, human V2 receptor (Homo sapiens, UniProt P30518); assay: Cellular in vitro test for determination of the vasopressin receptor activity (aequorin luminescence, CHO cells), human V2; assay type: cell-based; settings: cell line transfected with the human V2 receptor, antagonism of [Arg8]-vasopressin, read-out: IC50 hV2
T1 construct: expressed in transfected cells; host or cells: CHO K1 (ATCC), constitutively expressing a modified aequorin and stably co-transfected with promiscuous G-alpha-16
T1 sequence (P30518 whole entry): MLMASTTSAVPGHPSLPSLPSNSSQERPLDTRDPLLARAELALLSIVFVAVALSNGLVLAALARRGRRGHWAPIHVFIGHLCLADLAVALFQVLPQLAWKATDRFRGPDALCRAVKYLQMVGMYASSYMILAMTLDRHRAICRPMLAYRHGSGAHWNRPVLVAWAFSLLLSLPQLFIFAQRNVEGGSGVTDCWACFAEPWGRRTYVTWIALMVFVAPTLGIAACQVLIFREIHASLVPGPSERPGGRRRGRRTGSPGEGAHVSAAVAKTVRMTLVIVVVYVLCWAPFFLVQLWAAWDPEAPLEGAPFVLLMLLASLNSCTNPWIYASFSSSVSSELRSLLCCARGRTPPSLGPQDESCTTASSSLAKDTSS
Source text: (§1) B-1. Cellular In Vitro Test for Determination of the Vasopressin Receptor Activity
(§2) The identification of agonists and antagonists of the V1a- and V2-vasopressin receptors in man and the rat and the quantification of the activity of the compounds according to the invention are effected by means of recombinant cell lines. These cells are originally derived from the ovarian epithelial cells of the hamster (Chinese Hamster Ovary, CHO K1, ATCC: American Type Culture Collection, Manassas, Va. 20108, USA). The test cell lines constitutively express a modified form of the calcium-sensitive photoprotein aequorin, which after reconstitution with the cofactor coelenterazine emits light on an increase in the free calcium concentrations [Rizzuto R, Simpson A W, Brini M, Pozzan T, Nature 358, 325-327 (1992)]. In addition, the cells are stably transfected with human or rat V1a- or V2 receptors. In the case of the Gs-coupled V2 receptors, the cells are stably transfected with a further gene which codes for the promiscuous Gα16-Protein [Amatruda T T, Steele D A, Slepak V Z, Simon M I, Proceedings of the National Academy of Science USA 88, 5587-5591 (1991)]. The resulting vasopressin receptor test cells react to stimulation of the recombinantly expressed vasopressin receptors with an intracellular release of calcium ions, which can be quantified by the resulting aequorin luminescence with a suitable luminometer [Milligan G, Marshall F, Rees S, Trends in Pharmacological Sciences 17, 235-237 (1996)].
(§3) On the day before the text, the cells are plated out in culture medium (DMEM, 10% FCS, 2 mM glutamine, 10 mM HEPES) in 384-well microtitre plates and kept in a cell incubator (96% atmospheric humidity, 5% v/v CO2, 37° C.). On the test day, the culture medium is replaced by a Tyrode solution (140 mM NaCl, 5 mM KCl, 1 mM MgCl2, 2 mM CaCl2, 20 mM glucose, 20 mM HEPES) which in addition contains the cofactor coelenterazine (50 μM), and the microtitre plate is then incubated for a further 3-4 hours. The test substances in various concentrations are placed beforehand in the wells of the microtitre plate for 10 to 20 minutes, before the agonist [Arg^8]-vasopressin is added and the resulting light signal immediately measured in the luminometer. The IC50 values are calculated by means of the computer program GraphPad PRISM (Version 3.02).

[2] = target: T2, human V1a receptor (Homo sapiens, UniProt P37288); assay: Cellular in vitro test for determination of the vasopressin receptor activity (aequorin luminescence, CHO cells), human V1a; assay type: cell-based; settings: cell line transfected with the human V1a receptor, antagonism of [Arg8]-vasopressin, read-out: IC50 hV1a
T2 construct: expressed in transfected cells; host or cells: CHO K1 (ATCC), constitutively expressing a modified aequorin
T2 sequence (P37288 whole entry): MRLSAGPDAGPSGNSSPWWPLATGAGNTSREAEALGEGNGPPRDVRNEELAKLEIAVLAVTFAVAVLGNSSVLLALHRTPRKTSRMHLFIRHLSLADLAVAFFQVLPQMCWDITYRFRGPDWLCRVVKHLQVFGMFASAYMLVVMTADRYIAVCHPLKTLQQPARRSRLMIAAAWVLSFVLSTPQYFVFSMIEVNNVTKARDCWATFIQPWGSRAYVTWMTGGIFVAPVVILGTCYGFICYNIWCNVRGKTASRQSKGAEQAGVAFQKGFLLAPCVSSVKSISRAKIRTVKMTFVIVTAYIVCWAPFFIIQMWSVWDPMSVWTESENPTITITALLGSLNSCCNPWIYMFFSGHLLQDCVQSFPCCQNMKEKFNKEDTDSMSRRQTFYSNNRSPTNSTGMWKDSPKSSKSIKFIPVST
Source text: as §1, §2, §3

Row | IC50 [1] | IC50 [2] | SMILES
1 | 0.217 µM | 0.004 µM | COCCn1c(-c2ccc(Cl)cc2)nn(CC(=O)NC(C(=O)N(C)C)c2cccc(C(F)(F)F)c2)c1=O (stereo not shown) [Example 348]
2 | 0.009 µM | 0.019 µM | O=C(Cn1nc(-c2ccc(Cl)cc2)n(CC(O)C(F)(F)F)c1=O)NCCc1ccccc1OC(F)(F)F (stereo not shown) [Example 359]
3 | 0.008 µM | 0.022 µM | O=C(Cn1nc(-c2ccc(Cl)cc2)n(CC(O)C(F)(F)F)c1=O)NCC(F)(F)c1cccc(C(F)(F)F)c1 (stereo not shown) [Example 364]
4 | 0.023 µM | 0.611 µM | CC(C)(NC(=O)Cn1nc(-c2ccc(Cl)cc2)n(CC(F)(F)F)c1=O)c1cccc(C(F)(F)F)c1 [Example 386]
5 | 0.019 µM | 0.019 µM | CSc1ccccc1CNC(=O)Cn1nc(-c2ccc(Cl)cc2)n(Cc2ccccc2F)c1=O [Example 394, 2-[3-(4-chlorophenyl)-4-(2-fluorobenzyl)-5-oxo-4,5-dihydro-1H-1,2,4-triazol-1-yl]-N-[2-(methylthio)benzyl]-acetamide]
6 | 0.026 µM | 0.87 µM | CC(=O)Cn1c(-c2ccc(Cl)cc2)nn(CC(=O)NCc2cccc(C(F)(F)F)c2)c1=O [Example 415]
7 | 0.088 µM | 0.032 µM | C#CCn1c(-c2ccc(Cl)cc2)nn(CC(=O)NCCc2ccccc2C(F)(F)F)c1=O [Example 421]
8 | 0.015 µM | 0.157 µM | C=C(C)Cn1c(-c2ccc(Cl)cc2)nn(CC(=O)NC(C)(C)c2cccc(C(F)(F)F)c2)c1=O [Example 423, 2-[3-(4-chlorophenyl)-4-(2-methylprop-2-en-1-yl)-5-oxo-4,5-dihydro-1H-1,2,4-triazol-1-yl]-N-1-methyl-1-[3-(trifluoromethyl)phenyl]ethyl-acetamide]
9 | 0.009 µM | 0.199 µM | CC(C)(NC(=O)Cn1nc(-c2ccc(Cl)cc2)n(Cc2cccc(F)c2)c1=O)c1cccc(C(F)(F)F)c1 [Example 433, 2-[3-(4-chlorophenyl)-4-(3-fluorobenzyl)-5-oxo-4,5-dihydro-1H-1,2,4-triazol-1-yl]-N-1-methyl-1-[3-(trifluoromethyl)phenyl]ethyl-acetamide]
10 | 0.077 µM | 0.058 µM | CCOC(=O)Cn1c(-c2ccc(Cl)cc2)nn(CC(=O)NCCc2ccccc2C(F)(F)F)c1=O [Example 439]
11 | 0.023 µM | 0.093 µM | CCC(=O)Cn1c(-c2ccc(Cl)cc2)nn(CC(=O)NC(C)(C)c2cccc(C(F)(F)F)c2)c1=O [Example 443, 2-[3-(4-chlorophenyl)-5-oxo-4-(2-oxobutyl)-4,5-dihydro-1H-1,2,4-triazol-1-yl]-N-1-methyl-1-[3-(trifluoromethyl)phenyl]ethyl-acetamide]
12 | 0.029 µM | 0.043 µM | C/C=C/n1c(-c2ccc(Cl)cc2)nn(CC(=O)NCc2cccc(C(F)(F)F)c2)c1=O [Example 457, 2-{3-(4-chlorophenyl)-5-oxo-4-[(1E)-prop-1-en-1-yl]-4,5-dihydro-1H-1,2,4-triazol-1-yl}-N-[3-(trifluoromethyl)benzyl]-acetamide]
13 | 0.046 µM | 0.373 µM | CC(C)(NC(=O)Cn1nc(-c2ccc(Cl)cc2)n(CCN2CCOCC2)c1=O)c1cccc(C(F)(F)F)c1 [Example 462, 2-[3-(4-chlorophenyl)-4-(2-morpholin-4-ylethyl)-5-oxo-4,5-dihydro-1H-1,2,4-triazol-1-yl]-N-{1-methyl-1-[3-(trifluoromethyl)phenyl]ethyl}-acetamide]
14 | 0.026 µM | 0.439 µM | CC(C)(NC(=O)Cn1nc(-c2ccc(Cl)cc2)n(CC(=O)O)c1=O)c1cccc(C(F)(F)F)c1 [Example 467, 3-(4-chlorophenyl)-1-[2-(1-methyl-1-[3-(trifluoromethyl)phenyl]ethylamino)-2-oxoethyl]-5-oxo-1,5-dihydro-4H-1,2,4-triazol-4-yl-acetic acid]
15 | 0.002 µM | 0.039 µM | CC(C)(NC(=O)Cn1nc(-c2ccc(Cl)cc2)n(Cc2cccc(C(=O)O)c2)c1=O)c1cccc(C(F)(F)F)c1 [Example 471, 3-(3-(4-chlorophenyl)-1-[2-(1-methyl-1-[3-(trifluoromethyl)phenyl]ethylamino)-2-oxoethyl]-5-oxo-1,5-dihydro-4H-1,2,4-triazol-4-ylmethyl)-benzoic acid]
16 | 0.02 µM | 0.328 µM | CN(C)C(=O)c1cccc(Cn2c(-c3ccc(Cl)cc3)nn(CC(=O)NC(C)(C)c3cccc(C(F)(F)F)c3)c2=O)c1 [Example 475, 3-(3-(4-chlorophenyl)-1-[2-(1-methyl-1-[3-(trifluoromethyl)phenyl]ethylamino)-2-oxoethyl]-5-oxo-1,5-dihydro-4H-1,2,4-triazol-4-ylmethyl)-N,N-dimethylbenzamide]
17 | 0.094 µM | 1.23 µM | CC(C)(NC(=O)Cn1nc(-c2ccc(Cl)cc2)n(CC(N)=O)c1=O)c1cccc(C(F)(F)F)c1 [Example 476]
18 | 0.25 µM | 0.009 µM | CS(=O)(=O)c1ccccc1CNC(=O)Cn1nc(-c2ccc(Cl)cc2)n(Cc2ccccc2F)c1=O [Example 482, 2-[3-(4-chlorophenyl)-4-(2-fluorobenzyl)-5-oxo-4,5-dihydro-1H-1,2,4-triazol-1-yl]-N-[2-(methylsulphonyl)benzyl]-acetamide]
19 | 0.002 µM | 0.035 µM | CC(C)(NC(=O)Cn1nc(-c2ccc(Cl)cc2)n(CC(=O)C(F)(F)F)c1=O)c1cccc(C(F)(F)F)c1 [Example 489, 2-[3-(4-chlorophenyl)-5-oxo-4-(3,3,3-trifluoro-2-oxopropyl)-4,5-dihydro-1H-1,2,4-triazol-1-yl]-N-{1-methyl-1-[3-(trifluoromethyl)phenyl]ethyl}-acetamide]
20 | 0.257 µM | 0.049 µM | COCCn1c(-c2ccc(Cl)cc2)nn(CC(=O)NCC2(c3ccccc3F)CCCC2)c1=O [Example 494]
21 | 0.576 µM | 0.166 µM | Cc1csc(-c2nn(CC(=O)NCc3cccc(C(F)(F)F)c3)c(=O)n2CC(C)C)c1Cl [Example 496, 2-[3-(3-chloro-4-methyl-2-thienyl)-4-isobutyl-5-oxo-4,5-dihydro-1H-1,2,4-triazol-1-yl]-N-[3-(trifluoromethyl)phenylmethyl]-acetamide]
22 | 0.221 µM | 0.025 µM | O=C(Cn1cc(-c2ccc(Cl)s2)n(Cc2ccccc2F)c1=O)NCc1cccc(C(F)(F)F)c1 [Example 503]
23 | 0.336 µM | 0.005 µM | O=C(Cn1cc(-c2ccc(Cl)cc2)n(CC2CC2)c1=O)NCCc1ccccc1C(F)(F)F [Example 508]
24 | 0.004 µM | 0.008 µM | NC(=O)C(NC(=O)Cn1nc(-c2ccc(Cl)cc2)n(CC(O)C(F)(F)F)c1=O)c1cccc(C(F)(F)F)c1 (stereo not shown) [Example 509, 2-[3-(4-chlorophenyl)-5-oxo-4-(3,3,3-trifluoro-2-hydroxypropyl)-4,5-dihydro-1H-1,2,4-triazol-1-yl]-N-{2-amino-2-oxo-1-[3-(trifluoromethyl)phenyl]ethyl}-acetamide]
25 | 0.007 µM | 0.004 µM | O=C(Cn1nc(-c2ccc(Cl)cc2)n(CC(O)C(F)(F)F)c1=O)NC(C(=O)NC1CC1)c1cccc(C(F)(F)F)c1 (stereo not shown) [Example 510, 2-([3-(4-chlorophenyl)-5-oxo-4-(3,3,3-trifluoro-2-hydroxypropyl)-4,5-dihydro-1H-1,2,4-triazol-1-yl]acetylamino)-N-cyclopropyl-2-[3-(trifluoromethyl)phenyl]-acetamide]
26 | 0.011 µM | 0.004 µM | O=C(Cn1nc(-c2ccc(Cl)cc2)n(CC(O)C(F)(F)F)c1=O)NC(C(=O)N1CCOCC1)c1cccc(C(F)(F)F)c1 (stereo not shown) [Example 511, 2-[3-(4-chlorophenyl)-5-oxo-4-(3,3,3-trifluoro-2-hydroxypropyl)-4,5-dihydro-1H-1,2,4-triazol-1-yl]-N-{2-morpholin-4-yl-2-oxo-1-[3-(trifluoromethyl)phenyl]ethyl}-acetamide]
